This is an account of results in US9102701B2, “17-hydroxy-17-pentafluoroethyl-estra-4,9(10)-diene-11-ethynylphenyl derivatives, methods for the production thereof and use thereof for treating diseases” (Bayer Intellectual Property GmbH, priority 2009, dated 2015).

SMILES strings stand for the structures. pIC50: −log10 of the molar value. Converted amounts (≈) assume the structure as drawn.

Data set [1] in a line: Solubility in aqueous medium at pH 7.4. The data set is classed as physicochemical. Particulars: for solubility: aqueous medium, pH 7.4, aqueous buffer; for solubility (in words): aqueous medium under physiological conditions.
Data set [2] has as its target T1, human progesterone receptor B (Homo sapiens, UniProt P06401).
T1 construct: expressed in transfected cells; host or cells: SK-N-MC human neuroblastoma cells, stably transfected with pRChPR-B-neo and pMMTV-LUC
T1 sequence (P06401 1-933): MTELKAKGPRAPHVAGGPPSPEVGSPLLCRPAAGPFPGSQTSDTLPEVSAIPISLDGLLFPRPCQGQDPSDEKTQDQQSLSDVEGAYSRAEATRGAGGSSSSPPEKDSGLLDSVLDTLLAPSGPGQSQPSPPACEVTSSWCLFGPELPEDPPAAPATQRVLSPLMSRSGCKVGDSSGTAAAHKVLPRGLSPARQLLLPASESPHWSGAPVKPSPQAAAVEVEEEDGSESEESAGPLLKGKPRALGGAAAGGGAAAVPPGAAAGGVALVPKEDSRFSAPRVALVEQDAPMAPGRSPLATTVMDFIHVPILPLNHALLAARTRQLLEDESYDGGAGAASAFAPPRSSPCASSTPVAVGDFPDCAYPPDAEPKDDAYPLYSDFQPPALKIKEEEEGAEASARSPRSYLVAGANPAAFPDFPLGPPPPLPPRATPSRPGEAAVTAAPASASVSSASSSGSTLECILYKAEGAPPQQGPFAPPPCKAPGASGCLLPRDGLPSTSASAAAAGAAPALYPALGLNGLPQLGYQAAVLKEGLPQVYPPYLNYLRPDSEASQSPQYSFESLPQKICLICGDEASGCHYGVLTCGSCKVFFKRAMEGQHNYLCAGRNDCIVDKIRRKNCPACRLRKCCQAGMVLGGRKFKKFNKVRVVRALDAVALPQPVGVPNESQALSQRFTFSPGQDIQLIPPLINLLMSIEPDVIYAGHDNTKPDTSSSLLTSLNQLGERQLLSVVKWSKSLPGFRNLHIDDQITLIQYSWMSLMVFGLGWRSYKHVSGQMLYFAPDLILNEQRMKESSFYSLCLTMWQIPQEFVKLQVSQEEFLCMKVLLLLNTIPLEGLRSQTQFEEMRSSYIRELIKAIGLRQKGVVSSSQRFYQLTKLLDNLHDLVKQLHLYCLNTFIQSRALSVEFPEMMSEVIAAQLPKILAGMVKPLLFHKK
As to the kind of experiment: Progesterone receptor-antagonistic action in stably transfected SK-N-MC cells, PR-B, MMTV-LUC reporter. The data set is classed as cell-based. To be noted: read-out: IC50 PR-B. In a few lines:
(§1)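 SK-N-MC neuroblastoma cells stably expressing human PR-A or PR-B plus MMTV-LUC reporter, treated 24 h with compound (0.01 nmol/l upward). Antagonism measured against 0.1 nmol/l promegestone; luciferase in lysates as RLU, given as % efficacy and IC50 (agonism as EC50).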

Data set [3] can be described thus: Metabolic stability in human liver microsomes. Format: in vitro ADME. To be noted: for Predicted clearance Human: predicted in vivo clearance from liver microsomes, well-stirred model, 1 μM; for Predicted Fmax (maximum oral bioavailability) Human: calculated from liver microsome data. As to the method: Determination of Metabolic Stability in Human and Rat Liver Microsomes
Isolated Human Liver Microsomes (HLM) were Used to Assess the Metabolic Stability of compounds of general formula I.
The incubations were conducted with 2.4 ml of HLM solution (protein content 0.5 mg/ml), 30 μl of the test compound (final concentration 1 μM) and 0.6 ml of the cofactor mixture (═NADPH-generating system composed of 3 IU glucose-6-phosphate dehydrogenase, 14.6 mg glucose-6-phosphate, 1.2 mg NADP) at 37° C. in 100 mM phosphate buffer at pH 7.4. Samples were taken at 6 time points (2-60 min) and precipitated with an equal volume of methanol, and the recovery of the test substances used in the supernatant was determined by LC-MS/MS analysis. The half-life of substance degradation determined therefrom was used to calculate what is called the intrinsic clearance of the substance in the liver microsome preparation.

For data set [4], the target named is T2, human progesterone receptor A (Homo sapiens, UniProt P06401).
T2 construct: expressed in transfected cells; host or cells: SK-N-MC human neuroblastoma cells, stably transfected with pRChPR-A-neo and pMMTV-LUC
T2 sequence (P06401 1-769 isoform P06401-2): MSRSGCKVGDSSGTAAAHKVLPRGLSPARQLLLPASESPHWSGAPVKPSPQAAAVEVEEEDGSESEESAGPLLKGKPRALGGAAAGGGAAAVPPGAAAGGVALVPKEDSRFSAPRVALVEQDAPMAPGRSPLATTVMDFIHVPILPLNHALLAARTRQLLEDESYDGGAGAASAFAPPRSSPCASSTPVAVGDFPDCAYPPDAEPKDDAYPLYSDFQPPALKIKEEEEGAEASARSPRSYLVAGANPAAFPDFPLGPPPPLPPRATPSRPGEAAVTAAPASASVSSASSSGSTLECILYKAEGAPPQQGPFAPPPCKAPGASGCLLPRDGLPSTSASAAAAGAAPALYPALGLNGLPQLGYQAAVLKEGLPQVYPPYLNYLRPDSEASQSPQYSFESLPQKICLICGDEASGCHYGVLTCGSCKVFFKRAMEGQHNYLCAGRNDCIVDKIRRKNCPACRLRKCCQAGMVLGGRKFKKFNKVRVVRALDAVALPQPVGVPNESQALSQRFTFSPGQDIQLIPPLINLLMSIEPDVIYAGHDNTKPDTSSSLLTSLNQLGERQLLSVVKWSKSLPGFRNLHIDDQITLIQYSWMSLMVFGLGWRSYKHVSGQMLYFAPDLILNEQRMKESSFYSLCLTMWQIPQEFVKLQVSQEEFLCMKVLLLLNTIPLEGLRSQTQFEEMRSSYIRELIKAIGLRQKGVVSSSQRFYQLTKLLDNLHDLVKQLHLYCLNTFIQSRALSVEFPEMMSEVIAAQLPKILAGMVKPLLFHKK
As to the kind of experiment: Progesterone receptor-antagonistic action in stably transfected SK-N-MC cells, PR-A, MMTV-LUC reporter. The data set is classed as cell-based. To be noted: read-out: IC50 PR-A. The method, boiled down:
as §1

Turning to `C[C@]12C[C@H](c3ccc(C#C/C=C\C#N)cc3)C3=C4CCC(=O)C=C4CCC3C1CC[C@@]2(O)C(F)(F)C(F)(F)F` (stereo partly drawn) [Example 5, (Z)-5-[4-((8S,11R,13S,14S,17S)-17-hydroxy-13-methyl-3-oxo-17-pentafluoroethyl-2,3,6,7,8,11,12,13,14,15,16,17-dodecahydro-1H-cyclopenta[a]phenanthren-1′-yl)phenyl]pent-2-en-4-ynenitrile], the concentration in solution in data set [1] (solubility) was 8 µg/mL (≈ 14.8 µM). Also, the figures for the pIC50 in data set [2] and in data set [4] were 9.12 and 9.14, respectively. Also, the “Predicted clearance Human” value in data set [3] is 2.83 mL/min/kg.
With `C[C@]12C[C@H](c3ccc(C#CCOCCO)cc3)C3=C4CCC(=O)C=C4CC[C@H]3[C@@H]1CC[C@@]2(O)C(F)(F)C(F)(F)F` [Example 11, (8S,11R,13S,14S,17S)-17-hydroxy-11-{4-[3-(2-hydroxyethoxy)prop-1-yn-1-yl]-phenyl}-13-methyl-17-pentafluoroethyl-1,2,6,7,8,11,12,13,14,15,16,17-dodecahydrocyclopenta[a]phenanthren-3-one], in data set [1], the “solubility (in words)” value is on record as “improved solubility” and the solubility is 30 µg/mL (≈ 53.1 µM). Also, the pIC50 in data set [2] was 9.00. Moreover, in data set [3], the “Predicted Fmax (maximum oral bioavailability) Human” value (shortened to “Predicted Fmax”) is recorded as 63% and the “Predicted clearance Human” value is 8.17 mL/min/kg. The pIC50 in data set [4] was 9.49.
Take `C[C@]12C[C@H](c3ccc(C#C/C=C/c4cccc(C(=O)O)c4)cc3)C3=C4CCC(=O)C=C4CCC3C1CC[C@@]2(O)C(F)(F)C(F)(F)F` (stereo partly drawn) [Example 13A, 3-{(E)-4-[4-((8S,11R,13S,14S,17S)-17-hydroxy-13-methyl-3-oxo-17-pentafluoroethyl-2,3,6,7,8,11,12,13,14,15,16,17-dodecahydro-1H-cyclopenta[a]phenanthren-1′-yl)phenyl]but-1-en-3-ynyl}benzoic acid]: in data set [1], the “solubility (in words)” value was “improved solubility” and the solubility came out at 148 µg/mL (≈ 232 µM). The pIC50 in data set [2] was 9.70. Also, the “Predicted clearance Human” value in data set [3] is 5.17 mL/min/kg. Further, the pIC50 in data set [4] was 10.00.
In data set [1], `C[C@]12C[C@H](c3ccc(C#C/C=N/OCc4ccccc4)cc3)C3=C4CCC(=O)C=C4CCC3C1CC[C@@]2(O)C(F)(F)C(F)(F)F` (stereo partly drawn) [Example 24A, (E)-[4-((8S,11R,13S,14S,17S)-17-hydroxy-13-methyl-3-oxo-17-pentafluoroethyl-2,3,6,7,8,11,12,13,14,15,16,17-dodecahydro-1H-cyclopenta[a]phenanthren-1′-yl)phenyl]propynal O-benzyl oxime] yielded a solubility of 5 µg/mL (≈ 8.02 µM). Also, the pIC50 in data set [2] is 10.00. In addition, in data set [3], the “Predicted Fmax” value is 34% and the “Predicted clearance Human” value is 14.7 mL/min/kg. Moreover, in data set [4], the pIC50 was 10.00.
In data set [1], `CCO/N=C/C#Cc1ccc([C@H]2C[C@@]3(C)[C@@H](CC[C@@]3(O)C(F)(F)C(F)(F)F)[C@@H]3CCC4=CC(=O)CCC4=C32)cc1` [Example 25A, (E)-[4-((8S,11R,13S,14S,17S)-17-hydroxy-13-methyl-3-oxo-17-pentafluoroethyl-2,3,6,7,8,11,12,13,14,15,16,17-dodecahydro-1H-cyclopenta[a]phenanthren-1′-yl)phenyl]propynal O-ethyl oxime] yielded a solubility of 5 µg/mL (≈ 8.9 µM). Moreover, the pIC50 in data set [2] was 10.10. Also, in data set [3], the “Predicted Fmax” value is reported as 47% and the “Predicted clearance Human” value is 11.7 mL/min/kg. Also, in data set [4], the pIC50 was 11.00.
On to `CCNC(=O)NCC#Cc1ccc([C@H]2C[C@@]3(C)C(CC[C@@]3(O)C(F)(F)C(F)(F)F)C3CCC4=CC(=O)CCC4=C32)cc1` (stereo partly drawn) [Example 31, 1-ethyl-3-{3-[4-((8S,11R,13S,14S,17S)-17-hydroxy-13-methyl-3-oxo-17-pentafluoroethyl-2,3,6,7,8,11,12,13,14,15,16,17-dodecahydro-1H-cyclopenta[a]phenanthren-1′-yl)phenyl]prop-2-ynyl}urea], for which the solubility in data set [1] is 10 µg/mL (≈ 16.9 µM). For the same compound, the pIC50 in data set [2] was 10.00; in data set [4], 10.10. Moreover, in data set [3], the “Predicted Fmax” value is on record as 15%. The “Predicted clearance Human” value in data set [3] is 18.8 mL/min/kg.
The compound `C[C@]12C[C@H](c3ccc(C#CCNC(=O)Nc4ccccc4)cc3)C3=C4CCC(=O)C=C4CC[C@H]3[C@@H]1CC[C@@]2(O)C(F)(F)C(F)(F)F` [Example 34, 1-{3-[4-((8S,11R,13S,14S,17S)-17-hydroxy-13-methyl-3-oxo-17-pentafluoroethyl-2,3,6,7,8,11,12,13,14,15,16,17-dodecahydro-1H-cyclopenta[a]phenanthren-11-yl)phenyl]prop-2-ynyl}-3-phenylurea] had a solubility in data set [1] of 7 µg/mL (≈ 11 µM). For the same compound, the pIC50 in data set [2] and in data set [4] was 10.00 throughout. In data set [3], the “Predicted Fmax” value is 9%. Moreover, the “Predicted clearance Human” value in data set [3] was 20.2 mL/min/kg.
For `C[C@]12C[C@H](c3ccc(C#CCNC(=O)Nc4ccc(F)cc4)cc3)C3=C4CCC(=O)C=C4CC[C@H]3[C@@H]1CC[C@@]2(O)C(F)(F)C(F)(F)F` [Example 36, 1-{3-[4-((8S,11R,13S,14S,17S)-17-hydroxy-13-methyl-3-oxo-17-pentafluoroethyl-2,3,6,7,8,11,12,13,14,15,16,17-dodecahydro-1H-cyclopenta[a]phenanthren-11-yl)phenyl]prop-2-ynyl}-3-(4-fluorophenyl)urea], in data set [1], the solubility came to 4 µg/mL (≈ 6.09 µM). Besides, the pIC50 in data set [2] is 9.70. Besides, in data set [3], the “Predicted Fmax” value was 55% and the “Predicted clearance Human” value was 10 mL/min/kg. Further, the pIC50 in data set [4] is 10.00.
